Assay results: patent US12685312B2, “Sulfonamide apyrase inhibitors” (Texas Crop Science, Inc., priority 2022, dated 2026)

Tests used:
[1] = tested on: apyrase; assay: Screen for apyrase inhibitors (Method 1, in vitro phosphate-release absorbance assay); assay type: biochemical; settings: inhibitor conc at 1 mM stock, 1 hr room temperature, absorbance 630 nm; rounded average of two assay results
Method in brief: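 Phosphate-release colorimetric assay (Windsor method) in 60 mM Hepes, 3 mM MgCl2, 3 mM CaCl2, 3 mM ATP, pH 6.5, with compound or DMSO control added. Released phosphate developed with ammonium molybdate and ascorbic acid/TCA, then stopped with citrate/acetic acid.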

[2] = tested on: plant pathogenic fungi (Zymoseptoria tritici strains, Microdochium nivale); assay: In vitro combination assay (Method 2), overall comparison with Roux Compound 13; assay type: cell-based; settings: azoxystrobin, fluxapyroxad, desthio prothioconazole; three fungal strains
Method: (§1) Method 2: In Vitro Assessment of Combination Activity
(§2) Selected compounds were assessed in combination with fungicides against a range of commercially important plant pathogenic fungi.
(§3) The test was conducted as follows. A fungicide was applied to a fungal plant pathogen at a rate slightly below that at which it gave any control, in combination with a suitable dose of the test compound. The test compound was recorded as active if control of the pathogen was observed.
(§4) In more detail, the test was conducted as follows. For each combination of fungicide, pathogen and test compound, the following wells were used. Well 1 contained a fungal pathogen growing on agar, and a fungicide at a rate just below that at which it gave any control of the pathogen. Well 2 was the same as Well 1, except that the test compound was also added at Rate 1. Well 3 was the same as Well 2, except that the test compound was added at Rate 2, where Rate 2 was higher than Rate 1. Finally, as a benchmark, Well 4 was the same as Well 1, except that it contained the fungicide at a higher rate, at which it gave partial control of the pathogen. Each of the Wells 1 to 4 were run in duplicate, giving a total of 8 wells for each combination of fungicide, pathogen and test compound. For each well, after a suitable period of incubation, a visual assessment of the % control of the pathogen by the fungicide was made.
(§5) The following fungicides were used in this assay: azoxystrobin, fluxapyroxad, and desthio prothioconazole. The following fungal pathogens were used in this assay: First, a strain of Zymoseptoria tritici with a reduced susceptibility to strobilurin fungicides; second a strain of Zymoseptoria tritici with a reduced susceptibility to SDHI fungicides (i.e., those that inhibit succinate dehydrogenase); and third, Microdochium nivale.

[3] = tested on: Microdochium nivale; assay: In vitro assessment of combination activity with fungicides (Method 2); assay type: cell-based; settings: fungicide at a rate just below that giving any control; visual % control;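 also: scored as inactive active or highly active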
Method: as §1, §2, §3, §4, §5

[4] = tested on: Zymoseptoria tritici with a reduced susceptibility to SDHI fungicides; assay: as above; assay type: cell-based; settings: fungicide at a rate just below that giving any control; visual % control;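 also: scored as inactive active or highly active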
Method: as §1, §2, §3, §4, §5

[5] = tested on: Zymoseptoria tritici with a reduced susceptibility to strobilurin fungicides; assay: as above; assay type: cell-based; settings: fungicide at a rate just below that giving any control; visual % control;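 also: scored as inactive active or highly active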
Method: as §1, §2, §3, §4, §5

SMILES	% Inhibition of Apyrase [1]	enhancer activity in the combination assay compared with Roux Compound 13 [2]	further results
Cc1ccccc1NS(=O)(=O)c1cc(C(=O)Nc2cccc([N+](=O)[O-])c2)ccc1Cl [I-2, 4-chloro-N-(3-nitrophenyl)-3-(N-(o-tolyl)sulfamoyl)benzamide]	77%	superior enhancer activity than Roux Compound 13	–
N#Cc1cccc(NC(=O)c2cccc(S(=O)(=O)Nc3ccc(Br)cc3)c2)c1 [I-16, 3-(N-(4-bromophenyl)sulfamoyl)-N-(3-cyanophenyl)benzamide]	54%	superior enhancer activity than Roux Compound 13	–
COc1ccc(NC(=O)c2cccc(S(=O)(=O)Nc3ccc(Br)cc3)c2)cc1 [I-18, 3-(N-(4-bromophenyl)sulfamoyl)-N-(4-methoxyphenyl)benzamide]	51%	superior enhancer activity than Roux Compound 13	–
O=C(Nc1ccc(Br)cc1)c1cccc(S(=O)(=O)Nc2cc(C(F)(F)F)ccc2Cl)c1 [I-178, N-(4-bromophenyl)-3-(N-(2-chloro-5-(trifluoromethyl)phenyl)sulfamoyl)benzamide]	76%	superior enhancer activity than Roux Compound 13	–
O=C(Nc1cccc(Br)c1)c1cccc(S(=O)(=O)Nc2ccc3c(c2)OCO3)c1 [I-186, 3-(N-(benzo[d][1,3]dioxol-5-yl)sulfamoyl)-N-(3-bromophenyl)benzamide]	72%	superior enhancer activity than Roux Compound 13	–
Cc1cc(NC(=O)c2cccc(NS(=O)(=O)c3ccc(F)c(F)c3)c2)ccc1Br [I-191, N-(4-bromo-3-methylphenyl)-3-((3,4-difluorophenyl)sulfonamido)benzamide]	76%	superior enhancer activity than Roux Compound 13	–
O=C(Nc1ccc(Br)cc1)c1cccc(S(=O)(=O)Nc2ccc3c(c2)OCO3)c1 [I-201, 3-(N-(benzo[d][1,3]dioxol-5-yl)sulfamoyl)-N-(4-bromophenyl)benzamide]	77%	superior enhancer activity than Roux Compound 13	–
Cc1ccc(C(=O)Nc2cccc(NS(=O)(=O)c3ccccc3)c2)cc1F [I-209, 3-fluoro-4-methyl-N-(3-(phenylsulfonamido)phenyl)benzamide]	75%	superior enhancer activity than Roux Compound 13	–
O=C(Nc1cccc(C(F)(F)F)c1)c1cccc(NS(=O)(=O)c2cccc(C(F)(F)F)c2)c1 [I-217, N-(3-(trifluoromethyl)phenyl)-3-((3-(trifluoromethyl)phenyl)sulfonamido) benzamide]	70%	superior enhancer activity than Roux Compound 13	–
O=C(Nc1cccc(S(=O)(=O)Nc2ccc(Br)cc2)c1)C1CCCCC1 [I-219, N-(3-(N-(4-bromophenyl)sulfamoyl)phenyl) cyclohexanecarboxamide]	73%	superior enhancer activity than Roux Compound 13	–
O=C(Nc1cccc(S(=O)(=O)Nc2ccc(Br)cc2)c1)c1ccc(Cl)nc1 [I-221, N-(3-(N-(4-bromophenyl)sulfamoyl)phenyl)-6-chloronicotinamide]	67%	superior enhancer activity than Roux Compound 13	–
O=C(/C=C/c1ccco1)Nc1cccc(S(=O)(=O)Nc2ccc(Br)cc2)c1 [I-226, (E)-N-(3-(N-(4-bromophenyl)sulfamoyl)phenyl)-3-(furan-2-yl)acrylamide]	73%	superior enhancer activity than Roux Compound 13	–
N#Cc1ccccc1S(=O)(=O)Nc1cccc(C(=O)Nc2cccc(C(F)(F)F)c2)c1 [I-229, 3-((2-cyanophenyl)sulfonamido)-N-(3-(trifluoromethyl)phenyl)benzamide]	66%	superior enhancer activity than Roux Compound 13	–
O=C(Nc1cccc([N+](=O)[O-])c1)c1cccc(S(=O)(=O)Nc2ccc(Br)cc2)c1 [Roux compound 13, reference compound]	–	little or no activity	enhancement of activity of azoxystrobin [3]: enhancing the activity; enhancement of activity of azoxystrobin [4]: failing to enhance activity; enhancement of activity of desthio prothioconazole [4]: failing to enhance activity; enhancement of activity of fluxapyroxad [4]: failing to enhance activity; enhancement of activity of azoxystrobin [5]: failing to enhance activity; enhancement of activity of desthio prothioconazole [5]: failing to enhance activity; enhancement of activity of fluxapyroxad [5]: failing to enhance activity

Continued, in another order:

% Inhibition of Apyrase [1]	SMILES	enhancer activity in the combination assay compared with Roux Compound 13 [2]	further results
61%	COC(=O)c1ccc(NC(=O)c2ccccc2S(=O)(=O)N(C)c2ccccc2)cc1 [I-233, methyl 4-(2-(N-methyl-N-phenylsulfamoyl)benzamido)benzoate]	superior enhancer activity than Roux Compound 13	–
69%	O=C(Nc1cccc(C(F)(F)F)c1)c1cccc(NS(=O)(=O)c2cccc(Cl)c2)c1 [I-317, 3-((3-chlorophenyl)sulfonamido)-N-(3-(trifluoromethyl)phenyl)benzamide]	superior enhancer activity than Roux Compound 13	–
59%	O=C(Nc1ccccc1)c1ccc(S(=O)(=O)Nc2ccccc2)cc1 [I-392, N-phenyl-4-(N-phenylsulfamoyl)benzamide]	–	enhancement of activity of desthio prothioconazole [3]: highly active; enhancement of activity of azoxystrobin [4]: enhanced the activity; enhancement of activity of desthio prothioconazole [4]: highly active; enhancement of activity of azoxystrobin [5]: enhanced the activity; enhancement of activity of desthio prothioconazole [5]: highly active
82%	COc1cc(Cl)c(C)cc1NC(=O)c1ccccc1S(=O)(=O)N(C)c1ccccc1 [I-807, N-(4-chloro-2-methoxy-5-methylphenyl)-2-(N-methyl-N-phenylsulfamoyl)benzamide]	superior enhancer activity than Roux Compound 13	–
33%	O=C(Nc1cccc(OC(F)F)c1)c1cccc(S(=O)(=O)Nc2cccc(C(F)(F)F)c2)c1 [I-1007, N-(3-(difluoromethoxy)phenyl)-3-(N-(3-(trifluoromethyl)phenyl)sulfamoyl)benzamide]	–	–
29%	Cc1ccc(NS(=O)(=O)c2cccc(C(=O)Nc3cccc(S(N)(=O)=O)c3)c2)cc1 [I-1008, N-(3-sulfamoylphenyl)-3-(N-(p-tolyl)sulfamoyl)benzamide]	–	–
26%	Cc1n[nH]c(C)c1CCC(=O)Nc1cccc(NC(=O)c2cccc(S(=O)(=O)Nc3ccc(Br)cc3)c2)c1 [I-1009, 3-(N-(4-bromophenyl)sulfamoyl)-N-(3-(3-(3,5-dimethyl-1H-pyrazol-4-yl)propanamido)phenyl)benzamide]	–	–
